Experimental findings from US8686035B2, “Composition and method for promoting hair growth” (R-Tech Ueno, Ltd., priority 2003, dated 2014) are described below.

“And” between values parts separate entries of the source, which are not always exact repeats. Equal values may be shown once. “Also recorded” adds a separate entry of the source.

Common to all, as to format: in vivo
For assay [1], the system named is C3H/HeN mice. Kind of assay: Hair growth after topical application to clipped dorsal skin, macroscopic score (Example 1). The arrangement: key to Hair Growth Score: −: no hair growth observed; ±: hair growth≦10% of the clipped area; +: hair growth 10-40% of the clipped area; ++: hair growth 40-80% of the clipped area; +++: hair growth ≧80% of the clipped area. The settings on record: for Hair Growth Score / animals on which hair growth was observed: topical once daily; for Hair Growth Score: individual animals; for animals on which hair growth was observed: 0.1%, 30 days treatment period, 3 animals per group. The protocol: (§1) Eight-weeks-old male C3H/HeN mice were used. The hair on the back was clipped by electric clipper so that the hair in the clipped area was removed as much as possible. Three days after the clipping, mice without visible scratches were selected and used in this study. Each group consisted of 3 animals. After group assignment, the groups were housed separately in aluminum cages (3 animals/cage, 180 mm W×300 mm D×130 mm H; Nippon Cage, Ltd., Japan).
Each test compound was dissolved in 70% (w/w) aqueous ethanol. Each dose formulation of test compound was evenly applied topically once daily (100 μL per mouse) to the clipped dorsal skin area (approximately 2×4 cm), except for Saturday and Sunday, for 30 days. The control group received an equal amount of the vehicle in the same manner.
Macroscopic observations of the hair growth were performed 14, 16, 18, 21, 23, 25, 28 and 30 days after the start of the treatment. Hair growth was scored according to the scale below:
− no hair growth observed
± hair growth≦10% of the clipped area
+ hair growth 10-40% of the clipped area
++ hair growth 40-80% of the clipped area
+++ hair growth ≧80% of the clipped area

Assay [2] relates to C3H/HeN mice. Kind of assay: Thickness of grown-up hair (Example 3). The settings on record: 0.1% treated area, hairs collected 31 days after start of treatment of Example 1, n=3. The protocol: 31 days after the start of the treatment conducted in Example 1, grown-up hairs in the treated area and hairs in the untreated area (i.e. non clipped area) were collected, respectively. Enlarged photomicrographs of the collected hairs were taken. Thickness of the randomly selected each ten hairs were measured and calculated the average.

For assay [3], the system named is C3H/HeN mice. Kind of assay: Hair growth after topical application to clipped dorsal skin, macroscopic score (Example 2). The arrangement: key to Hair Growth Score: −: no hair growth observed; ±: hair growth≦10% of the clipped area; +: hair growth 10-40% of the clipped area; ++: hair growth 40-80% of the clipped area; +++: hair growth ≧80% of the clipped area. The settings on record: topical once daily; for Hair Growth Score: 0.1% in 75% aqueous ethanol, individual animals. On the procedure: as §1
Test compound was dissolved in 75% aqueous ethanol. The formulation of test compound (compound E) was evenly applied topically once daily (100 μL per mouse) to the clipped dorsal skin area (approximately 2×4 cm), except for Saturday and Sunday, for 23 days. The control group received an equal amount of the vehicle in the same manner.
Macroscopic observations of the hair growth were performed 14, 16, 18, 21 and 23 days after the start of the treatment. Hair growth was scored according to the scale shown as above. In the 0.1% compound E-treated group, hair growth was observed on 3 out of 3 animals.

[4] abbreviates: 0.1% in 70% (w/w) aqueous ethanol, day 14 of treatment.
The mark [5] stands for this setting: 0.1% in 70% (w/w) aqueous ethanol, day 16 of treatment.
Setting [6] is: 0.1% in 70% (w/w) aqueous ethanol, day 18 of treatment.
The mark [7] stands for this setting: 0.1% in 70% (w/w) aqueous ethanol, day 21 of treatment.
The mark [8] stands for this setting: 0.1% in 70% (w/w) aqueous ethanol, day 23 of treatment.
Setting [9] is: 0.1% in 70% (w/w) aqueous ethanol, day 25 of treatment.
The mark [10] stands for this setting: 0.1% in 70% (w/w) aqueous ethanol, day 28 of treatment.
[11] abbreviates: 0.1% in 70% (w/w) aqueous ethanol, day 30 of treatment.

With `CCCCCCCC(CCC1C(O)CC(O)C1C/C=C\CCCC(=O)OC(C)C)(OC)OC` (stereo not drawn) [Compound D, 13,14-dihydro-15,15-dimethoxy-20-ethyl-PGF2α isopropyl ester], the “Hair Growth Score” value was “−” with C3H/HeN mice [1] (setting [4]); “− (2×) and ± (hair growth≦10% of the clipped area)” in the assay with C3H/HeN mice [1] (setting [5]); “− (2×) and ± (hair growth≦10% of the clipped area)” in the assay on C3H/HeN mice [1] (setting [6]); “− (2×) and + (hair growth 10-40% of the clipped area)” with C3H/HeN mice [1] (setting [7]); “− (2×) and + (hair growth 10-40% of the clipped area)” in the assay on C3H/HeN mice [1] (setting [8]); “− (2×) and + (hair growth 10-40% of the clipped area)” in the assay on C3H/HeN mice [1] (setting [9]). Besides, the “Hair Growth Score” value is “− and ++ (hair growth 40-80% of the clipped area) and ± (hair growth≦10% of the clipped area)” with C3H/HeN mice [1] (setting [10]); “− and ++ (hair growth 40-80% of the clipped area) and ± (hair growth≦10% of the clipped area)” in the assay with C3H/HeN mice [1] (setting [11]). For the same compound, the “animals on which hair growth was observed” value (“animals” for short) in the assay with C3H/HeN mice [1] was 2 out of 3.

Turning to `CCCCCCCC1(CCC2C(O)CC(O)C2C/C=C\CCCC(=O)OC(C)C)OCCO1` (stereo not drawn) [Compound A, 13,14-dihydro-15,15-ethylenedioxy-20-ethyl-PGF2α isopropyl ester], in the assay on C3H/HeN mice [2], the “Hair thickness, μm mean ± SE” value is on record as 34.1 ± 1.6 μm. The “hair growth, dose dependence” value with C3H/HeN mice [1] (0.01% and 0.1% treated groups) is “dose-dependent hair growth”. Moreover, the “Hair Growth Score” value in the assay with C3H/HeN mice [1] (0.01% in 70% (w/w) aqueous ethanol, day 14 of treatment) was “−”; in the assay with C3H/HeN mice [1] (0.01% in 70% (w/w) aqueous ethanol, day 16 of treatment), “−”; in the assay on C3H/HeN mice [1] (0.01% in 70% (w/w) aqueous ethanol, day 18 of treatment), “− (2×) and ± (hair growth≦10% of the clipped area)”; in the assay on C3H/HeN mice [1] (0.01% in 70% (w/w) aqueous ethanol, day 21 of treatment), “− (2×) and ± (hair growth≦10% of the clipped area)”; with C3H/HeN mice [1] (0.01% in 70% (w/w) aqueous ethanol, day 23 of treatment), “− (2×) and ± (hair growth≦10% of the clipped area)”; in the assay on C3H/HeN mice [1] (0.01% in 70% (w/w) aqueous ethanol, day 25 of treatment), “− and + (hair growth 10-40% of the clipped area) (2×)”. The “Hair Growth Score” value in the assay on C3H/HeN mice [1] (0.01% in 70% (w/w) aqueous ethanol, day 28 of treatment) was “+ (hair growth 10-40% of the clipped area); also recorded: ++ (hair growth 40-80% of the clipped area)”; in the assay on C3H/HeN mice [1] (0.01% in 70% (w/w) aqueous ethanol, day 30 of treatment), “+ (hair growth 10-40% of the clipped area); also recorded: ++ (hair growth 40-80% of the clipped area)”; in the assay with C3H/HeN mice [1] (setting [4]), “−”; in the assay with C3H/HeN mice [1] (setting [5]), “± (hair growth≦10% of the clipped area) (2×) and −”; in the assay on C3H/HeN mice [1] (setting [6]), “± (hair growth≦10% of the clipped area)”; with C3H/HeN mice [1] (setting [7]), “+ (hair growth 10-40% of the clipped area)”. For the same compound, the “Hair Growth Score” value in the assay on C3H/HeN mice [1] (setting [8]) is on record as “++ (hair growth 40-80% of the clipped area)”; in the assay with C3H/HeN mice [1] (setting [9]), “++ (hair growth 40-80% of the clipped area)”; with C3H/HeN mice [1] (setting [10]) it was “+++ (hair growth ≧80% of the clipped area)”; in the assay with C3H/HeN mice [1] (setting [11]), “+++ (hair growth ≧80% of the clipped area)”.

Consider `CCCCCCCC1(CCC2C(O)CC(O)C2C/C=C\CCCC(=O)OCC)OCCO1` (stereo not drawn) [Compound E, 13,14-dihydro-15,15-ethylenedioxy-20-ethyl-PGF2α ethyl ester], for which the “Hair Growth Score” value is “−” in the assay with C3H/HeN mice [3] (day 14 of treatment); “−” in the assay on C3H/HeN mice [3] (day 16 of treatment); “± (hair growth≦10% of the clipped area) (2×) and −” in the assay on C3H/HeN mice [3] (day 18 of treatment); “++ (hair growth 40-80% of the clipped area); also recorded: + (hair growth 10-40% of the clipped area)” in the assay with C3H/HeN mice [3] (day 21 of treatment); “+ (hair growth 10-40% of the clipped area); also recorded: ++ (hair growth 40-80% of the clipped area)” in the assay on C3H/HeN mice [3] (day 23 of treatment). Further, the “animals” value in the assay with C3H/HeN mice [3] (0.1%, 23 days treatment period, 3 animals per group) was 3 out of 3.

Take `CCCCCCCC1(CCC2C(O)CC(O)C2C/C=C\CCCC(=O)OC(C)C)OCCCO1` (stereo not drawn) [Compound C, 13,14-dihydro-15,15-trimethylenedioxy-20-ethyl-PGF2α isopropyl ester]: the “Hair Growth Score” value is “−” with C3H/HeN mice [1] (setting [4]); “−” with C3H/HeN mice [1] (setting [5]); “− (2×) and ± (hair growth≦10% of the clipped area)” in the assay on C3H/HeN mice [1] (setting [6]); “− (2×) and ± (hair growth≦10% of the clipped area)” with C3H/HeN mice [1] (setting [7]); “− (2×) and ± (hair growth≦10% of the clipped area)” with C3H/HeN mice [1] (setting [8]); “− (2×) and + (hair growth 10-40% of the clipped area)” in the assay with C3H/HeN mice [1] (setting [9]). Moreover, the “Hair Growth Score” value is “− (2×) and + (hair growth 10-40% of the clipped area)” with C3H/HeN mice [1] (setting [10]); “− (2×) and + (hair growth 10-40% of the clipped area)” with C3H/HeN mice [1] (setting [11]). For the same compound, in the assay with C3H/HeN mice [1], the “animals” value is 1 out of 3.

In the case of `CC(C)OC(=O)CCC/C=C\CC1C(O)CC(O)C1CCC1(CCc2ccccc2)OCCO1` (stereo not drawn) [Compound B, 13,14-dihydro-15,15-ethylenedioxy-17-phenyl-18,19,20-trinor-PGF2α isopropyl ester], the “Hair thickness, μm mean ± SE” value with C3H/HeN mice [2] was determined as 33.3 ± 0.7 μm. In addition, the “Hair Growth Score” value is “−” with C3H/HeN mice [1] (setting [4]); “−” in the assay on C3H/HeN mice [1] (setting [5]); “± (hair growth≦10% of the clipped area) and − (2×)” in the assay with C3H/HeN mice [1] (setting [6]); “± (hair growth≦10% of the clipped area)” in the assay on C3H/HeN mice [1] (setting [7]); “+ (hair growth 10-40% of the clipped area)” in the assay with C3H/HeN mice [1] (setting [8]); “++ (hair growth 40-80% of the clipped area); also recorded: + (hair growth 10-40% of the clipped area)” in the assay on C3H/HeN mice [1] (setting [9]). In addition, the “Hair Growth Score” value in the assay on C3H/HeN mice [1] (setting [10]) is recorded as “++ (hair growth 40-80% of the clipped area)”; in the assay with C3H/HeN mice [1] (setting [11]), “++ (hair growth 40-80% of the clipped area)”; in the assay with C3H/HeN mice [1] (0.1% in 70% (w/w) aqueous ethanol, day 30 of treatment, listed as compound B) it was “++ (hair growth 40-80% of the clipped area)”.
